Test system: human fecal bacteria
Assay: Measure of prebiotic effect (MPE), stirred pH-controlled batch culture fermentations
Type: cell-based
Procedure: Quantitative in vitro methods are known for measuring the prebiotic effect of a fiber. The measurable effect a fiber has on the growth of major bacterial species in the human gut, bifidobacteria and lactobacilli in particular, is the measure of the prebiotic effect (MPE). MPE has three components:
1. the rate fiber is fermented;
2. the changes in bacterial populations; and
3. the production of SCFA.
The rate of fiber fermentation is determined by the change in the concentration of fiber over time. Thus, the quicker the fiber concentration decreases, the faster the rate of fermentation by bacteria. Changes in bacterial populations are measured by the “prebiotic index,” which considers increases in the growth rate of bifidobacteria, lactobacilli, and eubacteria as positive effects and increases in bacteriodes, clostridia, Escherichia coli, and sulphate-reducing bacteria as negative effects. Different fibers support the growth of distinct bacteria and therefore yield varying patterns and/or amounts of SCFA. However, the prebiotic effect is usually associated with lactic acid-producing bacteria, bifidobacteria and lactobacilli being principle lactic acid producers. Therefore, the ratio of lactic acid production relative to the total SCFA production provides a qualitative as well as quantitative assessment of the fibers being examined. The MPE provides a quantitative analysis of the prebiotic potential of a fiber and provides further support for the benefits of specific fibers. Therefore, the MPE is a useful tool in identifying the types and specific amounts of fiber that promote optimal digestive health and prevent or treat intestinal diseases.
Each value is based on stirred, pH-controlled batch culture fermentations using 0.25%, 0.5%, and 1.0% (w/v) substrates in the presence of human fecal bacteria.

Q: How did the MPE (0.25% (w/v) substrate) turn out when `OC[C@H]1O[C@@](CO)(O[C@H]2O[C@H](CO)[C@@H](O)[C@H](O)[C@H]2O)[C@@H](O)[C@@H]1O` [Sucrose] was run?
A: −0.3

Q: What about the MPE (0.5% (w/v) substrate) of the same compound?
A: −0.3

Q: What about the MPE (1% (w/v) substrate) of the same compound?
A: −0.6

Reference: patent US8530447B2, “Dietary fiber formulation and method of administration” (Nestec S.A., priority 2005, dated 2013)
